Data taken from ChEMBL document CHEMBL1201862, “PubChem BioAssay data set” (2004).
Activity calls are given as the source filed them.

Legend:
Leucine aminopeptidase = biological target: T1, Leucine aminopeptidase (Plasmodium falciparum 3D7, UniProt Q8IL11); assay: P. falciparum M17LAP inhibitors, primary screen, biochemical, fluorogenic H-Leu-NHMec substrate, 1536-well (AID 1619); format: functional
T1 sequence (Q8IL11 whole entry): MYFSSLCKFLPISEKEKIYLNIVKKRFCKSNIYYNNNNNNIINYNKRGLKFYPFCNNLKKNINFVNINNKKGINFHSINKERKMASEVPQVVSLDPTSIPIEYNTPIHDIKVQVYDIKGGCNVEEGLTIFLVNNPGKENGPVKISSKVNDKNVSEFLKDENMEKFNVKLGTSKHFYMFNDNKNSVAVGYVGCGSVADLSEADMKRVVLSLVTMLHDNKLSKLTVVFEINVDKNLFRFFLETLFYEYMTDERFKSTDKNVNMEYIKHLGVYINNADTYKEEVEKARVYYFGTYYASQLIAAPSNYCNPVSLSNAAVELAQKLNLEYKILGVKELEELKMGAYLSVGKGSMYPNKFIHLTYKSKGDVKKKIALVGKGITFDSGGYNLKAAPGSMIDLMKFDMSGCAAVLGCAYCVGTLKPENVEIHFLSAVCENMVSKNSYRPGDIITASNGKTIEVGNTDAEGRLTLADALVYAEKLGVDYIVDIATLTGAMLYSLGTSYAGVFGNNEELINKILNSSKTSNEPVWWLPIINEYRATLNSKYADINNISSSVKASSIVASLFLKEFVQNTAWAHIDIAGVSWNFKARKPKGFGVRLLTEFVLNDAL

Aminopeptidase N = biological target: T2, Aminopeptidase N (Plasmodium falciparum FcB1/Columbia, UniProt O96935); assay: P. falciparum M1AAP inhibitors, biochemical, fluorogenic H-Leu-NHMec substrate, 1536-well (AID 1445); parameters: species or system Plasmodium falciparum 3D7, 3D7
T2 sequence (O96935 whole entry): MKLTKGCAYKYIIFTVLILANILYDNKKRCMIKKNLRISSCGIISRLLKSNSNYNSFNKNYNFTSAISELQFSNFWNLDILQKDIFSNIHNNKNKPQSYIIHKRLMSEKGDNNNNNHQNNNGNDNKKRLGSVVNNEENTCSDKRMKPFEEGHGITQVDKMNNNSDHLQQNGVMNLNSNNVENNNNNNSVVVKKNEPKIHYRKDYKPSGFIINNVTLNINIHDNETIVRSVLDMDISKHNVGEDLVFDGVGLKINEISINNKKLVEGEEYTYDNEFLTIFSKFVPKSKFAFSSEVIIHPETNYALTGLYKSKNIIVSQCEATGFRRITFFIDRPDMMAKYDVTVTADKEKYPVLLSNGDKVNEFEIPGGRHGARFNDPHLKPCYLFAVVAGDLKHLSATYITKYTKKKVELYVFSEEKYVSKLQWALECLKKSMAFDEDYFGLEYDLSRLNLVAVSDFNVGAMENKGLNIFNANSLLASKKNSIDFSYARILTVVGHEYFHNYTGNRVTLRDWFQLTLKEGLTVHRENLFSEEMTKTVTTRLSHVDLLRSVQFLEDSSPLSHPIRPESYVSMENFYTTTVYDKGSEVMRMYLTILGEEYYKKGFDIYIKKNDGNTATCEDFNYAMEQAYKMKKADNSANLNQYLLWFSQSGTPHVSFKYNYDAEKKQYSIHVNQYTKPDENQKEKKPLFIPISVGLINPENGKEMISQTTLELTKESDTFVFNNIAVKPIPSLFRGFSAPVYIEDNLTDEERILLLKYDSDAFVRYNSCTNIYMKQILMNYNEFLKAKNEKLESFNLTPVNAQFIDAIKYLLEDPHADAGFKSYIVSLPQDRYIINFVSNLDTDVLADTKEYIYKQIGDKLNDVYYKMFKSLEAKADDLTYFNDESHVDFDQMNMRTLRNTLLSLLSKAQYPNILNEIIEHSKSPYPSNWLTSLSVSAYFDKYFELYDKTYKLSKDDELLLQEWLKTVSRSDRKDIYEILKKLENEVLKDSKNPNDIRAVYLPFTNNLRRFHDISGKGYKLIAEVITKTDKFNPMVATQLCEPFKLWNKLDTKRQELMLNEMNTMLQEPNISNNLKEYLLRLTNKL

[1] = inhibitors of intracellular T. cruzi replication, confirmation, NIH3T3 host cells, beta-gal luminescence (AID 2044); format: functional, cell-based;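 further: intracellular parasites grown in NIH/3T3 mouse fibroblasts as host cells; luminescent beta-galactosidase reporter signal from transgenic T. cruzi replicating inside host cells; inhibitors lower the luminescence signal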
[2] = cytotoxicity toward NIH3T3 fibroblasts, dose response, counter-screen, cell-based, ATP luminescence, mouse fibroblasts (AID 2010); format: functional;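 further: cells exposed to compound for about 90 hours before reading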
[3] = biological target: Voltage-dependent T-type calcium channel subunit alpha-1H (Homo sapiens, UniProt O95180); format: functional;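 further: channel activity triggered by adding a high calcium stimulation buffer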
[4] = biological target: Heat shock protein HSP 90-alpha (Homo sapiens, UniProt P07900); format: functional, organism-based
[5] = NIH-3T3 fibroblast cytotoxicity, dose response, cytotoxicity control, cell-based, fluorescence, Alamar Blue, secondary assay (AID 2327); format: functional;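 further: NIH-3T3 mouse fibroblasts cultured with fluconazole at 8 µg/mL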
[6] = C. albicans growth with fluconazole, confirmation, fluorescence, retest (AID 2467); format: functional, cell-based
Streptokinase A = biological target: T3, Streptokinase A (Streptococcus pyogenes serotype M1, UniProt P10520); assay: S. pyogenes streptokinase expression inhibitors, potency, dose response, plasminogen activation absorbance, OD405 (AID 1914); format: functional, Streptococcus pyogenes M1 GAS;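 further: secreted streptokinase activity via plasminogen activation per viability signal from cell pellet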
T3 sequence (P10520 whole entry): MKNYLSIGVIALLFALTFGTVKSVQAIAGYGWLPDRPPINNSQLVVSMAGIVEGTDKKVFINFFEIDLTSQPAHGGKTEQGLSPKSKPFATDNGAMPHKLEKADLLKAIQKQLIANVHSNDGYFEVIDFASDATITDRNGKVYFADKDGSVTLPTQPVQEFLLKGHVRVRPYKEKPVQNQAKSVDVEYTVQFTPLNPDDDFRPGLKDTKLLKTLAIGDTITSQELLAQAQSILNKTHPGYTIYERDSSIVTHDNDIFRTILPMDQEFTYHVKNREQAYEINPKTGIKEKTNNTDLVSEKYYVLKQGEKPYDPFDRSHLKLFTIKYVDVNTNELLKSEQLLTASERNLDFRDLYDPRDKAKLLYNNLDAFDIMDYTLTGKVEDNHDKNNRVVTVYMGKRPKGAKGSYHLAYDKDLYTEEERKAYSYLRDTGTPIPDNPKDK

[7] = test system: Streptococcus sp. 'group A'; assay: growth inhibition of control SK(-) GAS strain, dose response, counter-screen for streptokinase expression inhibitor project, luminescence, kanamycin, BacTiterGlo, confirmation (AID 1900); format: functional, organism-based
Streptococcus = assay: Group A Streptococcus viability loss, dose response, counter-screen for streptokinase expression inhibitor project, luminescence, BacTiterGlo (AID 1915); format: functional, organism-based;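 further: potency for reduction of bacterial viability or growth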
NS3 = NS3 (Hepatitis C virus, UniProt A3EZJ3); assay: PubChem AID 2173; parameters: species or system Hepacivirus hominis
[8] = inhibitors of SNCA 5'UTR-driven reporter translation, confirmation, H4 neuroglioma cells, luminescence (AID 1988); format: functional, cell-based
[9] = cytotoxicity in HEK-293T cells, dose response, cytotoxicity control for BCR NF-kB inhibitor project, luminescence, B-cell screen hits (AID 489021); format: functional, cell-based;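 further: HEK-293T cells carrying an NF-kB luciferase reporter; cells exposed to compound for about 14 hours before viability readout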
[10] = biological target: Luciferin 4-monooxygenase (Photinus pyralis, UniProt P08659); assay: Counter Screen for Luciferase-based Assay Positives. [Related pubchem assays: 620, 618, 411 ]
[11] = inhibitors of firefly luciferase expression or activity, dose response, H4 neuroglioma cells, luminescence (AID 1990); format: functional, cell-based
HT-1080 = assay: cytotoxicity in HT1080 fibrosarcoma cells, cell-based, fluorescence readout (AID 620); format: functional; settings: Homo sapiens
[12] = A Cell Based Secondary Assay To Explore Cytotoxicity of Compounds that Sensitize Mycobacterium Tuberculosis to Beta-Lactam Antibiotics.; format: functional

Chain of NS3 (A3EZJ3 whole entry): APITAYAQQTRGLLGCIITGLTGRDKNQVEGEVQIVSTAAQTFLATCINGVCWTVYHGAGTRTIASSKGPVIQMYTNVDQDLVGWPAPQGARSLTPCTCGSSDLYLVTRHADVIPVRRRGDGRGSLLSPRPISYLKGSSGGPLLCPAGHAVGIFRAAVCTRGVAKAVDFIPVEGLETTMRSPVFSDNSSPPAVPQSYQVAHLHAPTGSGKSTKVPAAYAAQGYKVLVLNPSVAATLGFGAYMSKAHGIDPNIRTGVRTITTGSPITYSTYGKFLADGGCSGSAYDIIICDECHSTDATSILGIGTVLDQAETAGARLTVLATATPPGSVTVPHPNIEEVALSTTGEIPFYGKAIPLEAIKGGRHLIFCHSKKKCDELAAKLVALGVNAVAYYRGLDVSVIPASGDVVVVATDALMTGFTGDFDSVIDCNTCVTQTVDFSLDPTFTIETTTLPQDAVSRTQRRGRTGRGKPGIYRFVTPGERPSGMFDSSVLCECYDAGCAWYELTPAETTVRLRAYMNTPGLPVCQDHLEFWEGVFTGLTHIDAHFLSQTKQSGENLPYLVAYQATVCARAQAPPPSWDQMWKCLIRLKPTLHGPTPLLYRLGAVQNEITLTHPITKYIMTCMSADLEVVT
Chain of Voltage-dependent T-type calcium channel subunit alpha-1H (O95180 whole entry): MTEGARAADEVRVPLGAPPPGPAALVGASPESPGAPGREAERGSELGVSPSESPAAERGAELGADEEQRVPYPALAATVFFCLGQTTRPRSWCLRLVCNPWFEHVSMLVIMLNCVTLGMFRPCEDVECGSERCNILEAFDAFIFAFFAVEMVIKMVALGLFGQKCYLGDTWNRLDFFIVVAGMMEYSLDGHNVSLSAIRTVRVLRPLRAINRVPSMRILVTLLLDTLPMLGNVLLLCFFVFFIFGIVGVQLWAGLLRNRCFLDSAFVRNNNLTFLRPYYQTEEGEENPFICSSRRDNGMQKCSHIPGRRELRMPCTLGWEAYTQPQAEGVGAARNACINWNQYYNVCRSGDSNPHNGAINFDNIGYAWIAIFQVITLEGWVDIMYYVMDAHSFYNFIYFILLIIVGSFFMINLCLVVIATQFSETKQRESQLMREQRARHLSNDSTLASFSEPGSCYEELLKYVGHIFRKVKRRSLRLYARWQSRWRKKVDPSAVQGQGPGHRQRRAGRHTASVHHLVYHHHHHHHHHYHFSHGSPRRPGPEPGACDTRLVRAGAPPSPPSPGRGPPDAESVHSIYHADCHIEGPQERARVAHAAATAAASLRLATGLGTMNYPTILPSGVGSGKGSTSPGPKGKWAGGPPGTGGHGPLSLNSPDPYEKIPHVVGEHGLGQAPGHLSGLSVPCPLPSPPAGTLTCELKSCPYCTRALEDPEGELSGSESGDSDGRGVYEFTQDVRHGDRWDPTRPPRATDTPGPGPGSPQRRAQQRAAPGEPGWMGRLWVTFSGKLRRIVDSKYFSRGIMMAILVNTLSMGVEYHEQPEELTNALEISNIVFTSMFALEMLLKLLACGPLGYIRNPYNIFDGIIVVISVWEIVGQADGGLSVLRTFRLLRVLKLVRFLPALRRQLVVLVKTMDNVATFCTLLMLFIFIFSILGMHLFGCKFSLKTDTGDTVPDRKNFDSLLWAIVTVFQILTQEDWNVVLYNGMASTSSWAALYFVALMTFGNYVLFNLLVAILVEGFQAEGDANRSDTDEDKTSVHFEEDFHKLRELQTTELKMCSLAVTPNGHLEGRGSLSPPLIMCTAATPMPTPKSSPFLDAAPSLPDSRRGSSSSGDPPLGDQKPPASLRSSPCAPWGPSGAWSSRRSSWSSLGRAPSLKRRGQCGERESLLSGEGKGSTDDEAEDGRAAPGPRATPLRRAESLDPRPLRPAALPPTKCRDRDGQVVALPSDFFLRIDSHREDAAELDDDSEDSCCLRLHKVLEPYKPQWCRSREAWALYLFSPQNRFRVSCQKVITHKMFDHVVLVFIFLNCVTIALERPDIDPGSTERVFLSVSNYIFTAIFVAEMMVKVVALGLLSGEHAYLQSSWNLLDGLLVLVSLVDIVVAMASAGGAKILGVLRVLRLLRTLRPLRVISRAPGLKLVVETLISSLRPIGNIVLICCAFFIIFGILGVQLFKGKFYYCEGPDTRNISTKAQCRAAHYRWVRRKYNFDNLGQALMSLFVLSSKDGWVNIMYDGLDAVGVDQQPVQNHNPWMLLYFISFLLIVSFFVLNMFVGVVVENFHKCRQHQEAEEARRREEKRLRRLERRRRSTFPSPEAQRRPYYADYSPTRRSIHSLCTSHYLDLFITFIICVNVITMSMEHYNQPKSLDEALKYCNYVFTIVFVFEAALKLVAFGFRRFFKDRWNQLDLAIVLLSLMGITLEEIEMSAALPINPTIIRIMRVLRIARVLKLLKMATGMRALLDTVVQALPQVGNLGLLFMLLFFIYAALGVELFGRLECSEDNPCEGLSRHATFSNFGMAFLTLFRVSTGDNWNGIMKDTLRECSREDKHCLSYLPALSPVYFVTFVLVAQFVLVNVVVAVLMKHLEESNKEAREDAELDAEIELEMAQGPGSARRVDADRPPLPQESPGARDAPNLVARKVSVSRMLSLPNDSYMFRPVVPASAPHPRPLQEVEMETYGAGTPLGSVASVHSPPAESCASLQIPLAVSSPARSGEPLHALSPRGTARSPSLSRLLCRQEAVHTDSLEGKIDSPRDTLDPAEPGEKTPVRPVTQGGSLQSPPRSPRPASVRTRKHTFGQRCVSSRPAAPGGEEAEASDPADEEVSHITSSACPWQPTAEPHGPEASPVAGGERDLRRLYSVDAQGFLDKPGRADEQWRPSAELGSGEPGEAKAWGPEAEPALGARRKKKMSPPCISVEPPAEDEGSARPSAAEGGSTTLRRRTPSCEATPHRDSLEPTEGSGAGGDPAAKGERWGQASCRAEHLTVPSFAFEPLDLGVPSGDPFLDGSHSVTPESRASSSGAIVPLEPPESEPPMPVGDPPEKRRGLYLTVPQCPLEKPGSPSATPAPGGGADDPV
Chain of Luciferin 4-monooxygenase (P08659 whole entry): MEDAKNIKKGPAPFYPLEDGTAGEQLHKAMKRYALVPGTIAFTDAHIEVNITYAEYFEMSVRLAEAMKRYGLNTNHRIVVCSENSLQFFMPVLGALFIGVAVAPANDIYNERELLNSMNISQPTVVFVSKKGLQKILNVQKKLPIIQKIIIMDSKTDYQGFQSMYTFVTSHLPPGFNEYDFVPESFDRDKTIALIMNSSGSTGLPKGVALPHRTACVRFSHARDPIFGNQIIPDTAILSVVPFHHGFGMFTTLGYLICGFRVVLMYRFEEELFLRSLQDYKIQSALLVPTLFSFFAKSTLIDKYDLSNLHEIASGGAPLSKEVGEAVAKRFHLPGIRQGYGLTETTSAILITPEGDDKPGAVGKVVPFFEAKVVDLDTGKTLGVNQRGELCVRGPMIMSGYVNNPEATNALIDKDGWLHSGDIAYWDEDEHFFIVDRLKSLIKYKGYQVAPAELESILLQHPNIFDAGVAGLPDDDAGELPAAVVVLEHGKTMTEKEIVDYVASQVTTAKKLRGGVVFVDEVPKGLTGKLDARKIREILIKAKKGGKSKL

In the case of `O=C(NCc1ccccc1)c1ccc2c(=O)[nH]c3c(C(=O)NCC4CCCO4)sc(=S)n3c2c1` (configuration not stated), the IC50 (Leucine aminopeptidase) is reported as 8.61 µM (active) and the IC50 (Aminopeptidase N) is reported as 29.2 µM (active).

For `Cc1ccc(NC(=O)C(Cc2ccccc2)N2C(=O)C3C4CCC(C4)C3C2=O)cc1Cl` (configuration not stated), the EC50 [1] was 0.871 µM (active), the EC50 [2] was > 60 µM (not active) and the EC50 [3] was 5.73 µM (active).

In the case of `Cc1ccc(/C=C/C(=O)c2ccccc(=O)c2O)c(C)c1`, the AC50 [4] is reported as 2.05 µM (active), the EC50 [5] is reported as > 160 µM (inactive) and the EC50 [6] is reported as 1.46 µM (active). For the same molecule, the EC50 (Streptokinase A) was > 150 µM (not active), the EC50 [7] was 5.22 µM (active) and the EC50 (Streptococcus) was 7.6 µM (active). For the same molecule, the IC50 (NS3) was 2.9 µM (active).

With `Cc1nc2cc(-c3cccc(F)c3)nn2c(C)c1CCC(=O)NC(C)CCc1ccco1` (configuration not stated) the EC50 [8] was 5.87 µM (active), the IC50 [9] was > 80 µM (inactive) and the EC50 [10] was 0.27 µM (active). For the same molecule, the EC50 [11] was 2.36 µM (active) and the EC50 (HT-1080) was > 50 µM (not active).

In the case of `O=C1OC(c2ccco2)=N/C1=C\c1ccc(-c2cccc(C(F)(F)F)c2)o1`, the IC50 (NS3) is reported as 22.1 µM (not active).

With `O=C1N=C(N2CCCC2)S/C1=C\c1cccc(Br)c1` the CC50 [12] was > 40 µM (active).

For `O=C(Nc1nc2nc(-c3ccccc3)cc(-c3ccccc3)n2n1)c1ccco1`, the IC50 [9] was > 80 µM (inactive).

With `COc1ccc(-c2csc(Nc3ncccc3C)n2)cc1OC` the CC50 [12] was > 40 µM (active).

For `COc1cc(/C=C/C(=O)OCC(=O)Nc2cc(C)c(C)cc2[N+](=O)[O-])ccc1O`, the CC50 [12] was > 40 µM (active).
